Source: publication PMC11111408, “Concurrent inhibition of oncogenic and wild-type RAS-GTP for cancer therapy” (Nature, 2024)
“And” between values parts separate entries of the source, which are not always exact repeats. Equal values may be shown once.

Assays:
KRAS^G12S = KRAS^G12S (Homo sapiens, UniProt P01116+P62937, G12S); test: Cellular RAS–RAF (CRAF RBD) disruption, nano-BRET in U2OS cells; assay type: cell-based; set-up: expressed in transfected cells; host or cells: U2OS PPIA-KO; conditions: (95% CI)
Text: (§1) KRAS4B, or other small GTPases, containing the indicated mutations were cloned in pNLF-N or pHTN plasmids for expression with an N-terminal nanoluciferase or HaloTag fusion, respectively. […] The following day, the cells were collected by Trypsin and reseeded in a white tissue culture-treated 96-well plate in OptiMem phenol red-free medium (Gibco) containing 4% FBS and a 1:1,000 dilution of NanoBRET 618 HaloTag ligand (Promega). For endpoint concentration response curves, vivazine nanoluciferase substrate was added to 1× concentration in OptiMem phenol red-free medium with 4% FBS. Varying concentrations of inhibitor were added and incubated for 1 or 4 h before the nano-BRET signal was measured on a Perkin Elmer Envision plate reader. For kinetic assays, endurazine nanoluciferase substrate was used in place of vivazine, and the plate was placed in a Cytation5 multi-mode reader pre-equilibrated to 37 °C and 5% CO2.

KRAS^G12C = KRAS^G12C (Homo sapiens, UniProt P01116+P62937, G12C); test: Cellular RAS–CYPA binding (tri-complex formation), nano-BRET in U2OS cells; assay type: cell-based; set-up: expressed in transfected cells; host or cells: U2OS; conditions: (95% CI)
Text: as §1

KRAS^G12R = KRAS^G12R (Homo sapiens, UniProt P01116+P62937, G12R); test: as above; assay type: cell-based; set-up: expressed in transfected cells; host or cells: U2OS; conditions: (95% CI)
Text: as §1

KRAS^G13C = KRAS^G13C (Homo sapiens, UniProt P01116+P62937, G13C); test: as above; assay type: cell-based; set-up: expressed in transfected cells; host or cells: U2OS; conditions: (95% CI)
Text: as §1

KRAS WT = KRAS WT (Homo sapiens, UniProt P01116+P62937); test: as above; assay type: cell-based; set-up: expressed in transfected cells; host or cells: U2OS; conditions: (95% CI)
Text: as §1

KRAS^G12D = KRAS^G12D (Homo sapiens, UniProt P01116+P62937, G12D); test: as above; assay type: cell-based; set-up: expressed in transfected cells; host or cells: U2OS; conditions: (95% CI)
Text: as §1

RAS = test: Binding of the CYPA–RMC-7977 binary complex to RAS (Kd2), SPR; set-up: species or system human; conditions: all three wild-type RAS proteins
Text: The basic nitrogen of the piperazine forms a cation–π interaction with W121. e, Oriented by the hydrogen bond to CYPA W121, RAS Y64 forms π-stacking interactions with the pyridine and indole groups. […] Data are mean ± s.d. of independent experiments (KRAS variants (green): wild-type (WT) KRAS, n = 4; KRAS(G12C), KRAS(G12D), KRAS(G12R), KRAS(G12V), KRAS(G13D), n = 6; NRAS variants (blue): NRAS(WT), NRAS(Q61L), n = 4; NRAS(Q61K), NRAS(Q61R), n = 6; HRAS variants (purple): HRAS(WT), n = 5; HRAS(G13R), n = 6; slope = 0.99, 95% confidence interval: 0.8–1.2, R^2 = 0.99; values also shown in Extended Data Tables 1–3).
The binding affinity of compound-bound CYPA for the mutant oncogenic RAS proteins (Kd2) mentioned was assessed by SPR on a Biacore 8 K instrument. […] The SPR sensorgrams were fit using either a steady state affinity model or a 1:1 binding (kinetic) model to assess the dissociation constant (Kd) for RAS binding.

CYPA = target: T1, CYPA (Homo sapiens, UniProt P62937); test: CYPA binding affinity (Kd1), SPR; conditions: steady state, (95% CI)
T1 construct: His6-TEV-AviTag-CYPA (full-length); His6-TEV (N); made in house; host or cells: BL21(DE3) Escherichia coli
Experimental: The binding affinity of compounds for CYPA (Kd1) was assessed by SPR on a Biacore 8K instrument as previously described.

[1] = test system: CT26 syngeneic tumours engineered to express KRAS^G12C; test: Immune cell response in eCT26 KRAS^G12C syngeneic tumours; assay type: in vivo, mouse; conditions: 24 hours post 4 days of treatment, 25 mg/kg PO QD, individual mice
Experimental: Tumor tissue was minced, processed with the Dri Tumor & Tissue Dissociation Reagent from BD Biosciences and homogenized with the gentleMACS™ Dissociator. Tumor cell suspensions were incubated at 4°C for 30 minutes with Mouse BD Fc Block (Clone 2.4G2 from BD Pharmingen), 10 minutes with Blue Dead Cell Stain Kit (Invitrogen) and 30 min in cell staining buffer. […] Cells were analyzed on a 4-laser Cytek Aurora (Cytek Biosciences), and data analysis was done using SpectroFlo (Cytek Biosciences) and FlowJo (FlowJo LLC.).

[2] = test system: KRAS^G12C with secondary switch II pocket mutations; test: Cellular nano-BRET KRAS:CRAF disruption, KRAS^G12C with secondary SWII mutations; assay type: cell-based, human; conditions: KRAS^G12C with secondary mutation, 4 h
KRAS^Q61H = KRAS^Q61H (Homo sapiens, UniProt P01116+P62937, Q61H); test: Cellular RAS–CYPA binding (tri-complex formation), nano-BRET in U2OS cells; assay type: cell-based; set-up: expressed in transfected cells; host or cells: U2OS or U2OS PPIA-KO; conditions: (95% CI)
Text: as §1

KRAS^G12A = KRAS^G12A (Homo sapiens, UniProt P01116+P62937, G12A); test: as above; assay type: cell-based; set-up: expressed in transfected cells; host or cells: U2OS or U2OS PPIA-KO; conditions: (95% CI)
Text: as §1

Question: What does the source list for `CCn1c(-c2cc(N3CCN(C4CC4)CC3)cnc2[C@H](C)OC)c2c3cc(ccc31)-c1csc(n1)C[C@H](NC(=O)[C@H]1[C@@H]3COC[C@@H]31)C(=O)N1CCC[C@H](N1)C(=O)OCC(C)(C)C2` [RMC-7977]?
Answer: EC50 (KRAS^G12S): 15.1 nM; EC50 (KRAS^G12C): 1.27 nM; EC50 (KRAS^G12R): 2.88 nM; EC50 (KRAS^G13C): 3.7 nM; EC50 (KRAS WT): 9.12 nM; EC50 (KRAS^G12D): 2.69 nM; Kd (RAS): ~100 nM; Kd (CYPA): 195 nM; AH1 specific % of CD8+ cells [1]: 37.8% and 45.2% and 69.2% and 39.2%; CD8+ % of CD45+ cells [1]: 36.2% and 31.8% and 38.7% and 46.1%; CD45+ % of live cells [1]: 77.4% and 74.9% and 84.2% and 83.5%; effect of switch II pocket binding mutations (R68, Y96, H95) on potency [2]: little or no effect; EC50 (KRAS^Q61H): 5.75 nM; EC50 (KRAS^G12A): 4.91 nM
